From patent publication US20250312323A1 (Cavion, Inc., priority 2018, published 2025)

What was measured:
[1] = system: patients with essential tremor; assay: T-CALM: TETRAS total score; assay type: in vivo, human
Experimental: The Total TETRAS score was defined as the sum of the TETRAS performance subscale total score and the TETRAS ADL subscale score. TETRAS TOTAL score combines both patient reported outcome and objective measurement of tremor amplitude in a single score. Analyses of the TETRAS-ADL was conducted using the same type of ANCOVA model as described for the TETRAS-PS, using two-sided tests at the alpha=0.05 level of significance (FIG. 3 and Table 3).
(§1) Both sets of scores were statistically analyzed.

[2] = system: patients with essential tremor; assay: T-CALM: electrocardiogram, vital signs, clinical laboratory, examinations; assay type: in vivo, human
Experimental: Electrocardiogram results were calculated as the average of the triplicate records at each time point. Baseline was defined as the mean of the triplicate values obtained pre-dose at Day 1. If this value was not available, the mean of the triplicate records obtained at screening were used.
Safety procedures involved collection of all TEAEs (treatment-emergent adverse events) coded into the Medical Dictionary for Regulatory Activities (MedDRA) version 20. Adverse events were classified by maximum severity, drug-related adverse events, serious adverse events, and adverse events leading to patient discontinuation.

[3] = system: patients with essential tremor; assay: T-CALM: PK/PD, Cmin exposure vs change in TETRAS-PS (Hill equation); assay type: in vivo, human; conditions: steady state, estimated
Excerpt: Evaluation of the relationship between the Cmin exposure level of CX-8998 and response (E) as measured by change from baseline in TETRAS-PS using the Hill Equation: […]
Pharmacodynamic variables (Response) evaluated included change from baseline in TETRAS performance subscale, TETRAS activities of daily living, TETRAS total score.

[4] = Pharmacokinetics of CX-8998 immediate release capsules in healthy volunteers (Studies PN001, PN002); assay type: in vivo, human; conditions: 2-18 mg dose range
[5] = system: patients with essential tremor; assay: T-CALM: TETRAS activities of daily living subscale; assay type: in vivo, human; conditions: for TETRAS-ADL Score change from baseline, Median (minimum, maximum): Day 15, post-hoc
Experimental: The sum of the individual scores provides the overall score, ranging from 0 to 48. The complete TETRAS ADL Subscale is as follows.
Analyses of the TETRAS-ADL was conducted using the same type of ANCOVA model as described for the TETRAS-PS, using two-sided tests at the alpha=0.05 level of significance (FIG. 2 and Table 2).
as §1

Solubility of CX-8998 = assay type: physicochemical; conditions: at higher pH values
Excerpt: Sustained release (SR) beads were developed with multiple types of sustained release and enteric coatings. Some SR matrix beads were developed using typical polymers (e.g., hydroxypropyl methylcellulose or carbopol) to achieve sustained release. Some SR matrix beads were developed using pH independent sustained release osmotic pumps to achieve zero order release from the tablet. […] Some SR matrix beads were developed using Eudragit RS/RL30D coating of IR beads to achieve an approach that depends on slow erosion of coating thereby sustaining the release of the drug from an IR matrix.

[6] = system: patients with essential tremor; assay: T-CALM: TETRAS performance subscale, independent video raters; assay type: in vivo, human; conditions: Day 28
Excerpt: as §1

[7] = system: patients with essential tremor; assay: T-CALM: Patient Global Impression of Change (PGIC); assay type: in vivo, human; conditions: for PGIC score (rescaled −3 to 3), LS mean (SE): ANCOVA
Excerpt: Treatment success as measured by PGIC was summarized using descriptive statistics.
The Patient Global Impression of Change (PGIC) will quantify a patient's impression of improvement or decline over time with respect to ET treatment (see, e.g., Guy, Assessment Mantal for Psychopharmacology. Rockville, MD: Department of Health, Education, and Welfare Public Health Service Alcohol, Drug Abuse, and Mental Health Administration, 1976). The patient will use the PGIC scale to assess current health status versus initiation of treatment and calculate the difference.

EEG alpha power = assay: Human pharmaco-EEG alpha power (Study PN001/Part II); assay type: in vivo; conditions: at plasma concentrations greater than 200 to 300 nM (4 mg BID)
Excerpt: FIG. 91 contains a graph showing the analysis of awake EEG absolute power for Alpha band (Electrode site Oz, eyes closed condition) (Study PN001/Part II).
FIG. 92 contains a graph showing the pharmacokinetic/pharmacodynamic analysis of EEG Alpha power (Study PN001/Part 1). BID=twice daily; EEG=electroencephalogram; MK=CX-8998; PBO=placebo; PD=pharmacodynamic.

[8] = Day 15, change from baseline, N = 39
[9] = Day 28, change from baseline, N = 37

## CC(C)c1ccc(CC(=O)N[C@H](C)c2ccc(OCC(F)(F)F)cn2)cc1 [CX-8998]
[1]; Day 15, N 39
  Subjects with improvement of at least 5 points by TETRAS Total score, number: 22
[1]; [8]
  TETRAS Total Score, subjects with 0 change, n (%): 1 (2.6%)
  TETRAS Total Score, subjects with >0 to 1 point improvement, n (%): 2 (5.1%)
  TETRAS Total Score, subjects with >0 to 1 point worsening, n (%): 2 (5.1%)
  TETRAS Total Score, subjects with >1 to 2.5 point improvement, n (%): 2 (5.1%)
  TETRAS Total Score, subjects with >1 to 2.5 point worsening, n (%): 1 (2.6%)
  TETRAS Total Score, subjects with >2.5 to 5 point improvement, n (%): 7 (17.9%)
  TETRAS Total Score, subjects with >2.5 to 5 point worsening, n (%): 4 (10.3%)
  TETRAS Total Score, subjects with >5 to 10 point improvement, n (%): 6 (15.4%)
  TETRAS Total Score, subjects with >5 to 10 point worsening, n (%): 0
  TETRAS Total Score, subjects with >10 point worsening, n (%): 0
  TETRAS Total Score, subjects with >10 to 20 point improvement, n (%): 12 (30.8%)
  TETRAS Total Score, subjects with >20 point improvement, n (%): 2 (5.1%)
[1]; Day 15 or 28
  total TETRAS score with TETRAS-PS rated by independent video raters, vs placebo: not statistically significant
[1]; Day 28, N 37
  Subjects with improvement of at least 5 points by TETRAS Total score, number: 21
[1]; [9]
  TETRAS Total Score, subjects with 0 change, n (%): 0
  TETRAS Total Score, subjects with >0 to 1 point improvement, n (%): 2 (5.4%)
  TETRAS Total Score, subjects with >0 to 1 point worsening, n (%): 4 (10.8%)
  TETRAS Total Score, subjects with >1 to 2.5 point improvement, n (%): 2 (5.4%)
  TETRAS Total Score, subjects with >1 to 2.5 point worsening, n (%): 2 (5.4%)
  TETRAS Total Score, subjects with >2.5 to 5 point improvement, n (%): 5 (13.5%)
  TETRAS Total Score, subjects with >2.5 to 5 point worsening, n (%): 1 (2.7%)
  TETRAS Total Score, subjects with >5 to 10 point improvement, n (%): 7 (18.9%)
  TETRAS Total Score, subjects with >5 to 10 point worsening, n (%): 0
  TETRAS Total Score, subjects with >10 point worsening, n (%): 0
  TETRAS Total Score, subjects with >10 to 20 point improvement, n (%): 8 (21.6%)
  TETRAS Total Score, subjects with >20 point improvement, n (%): 5 (13.5%)
[2]
  clinical laboratory parameters vs placebo: No clinically meaningful differences
  vital signs, ECG, neurological and physical examinations: No clinically significant abnormalities
[3]
  Emax, change from baseline in TETRAS-PS vs Cmin (Hill equation): approximately −4.1
[4]
  dose proportionality of plasma profiles: dose proportional
[5]; Day 15, N 39
  Subjects with improvement of at least 5 points by TETRAS-ADL score, number: 18
[5]; [8]
  TETRAS-ADL Score, subjects with 0 change, n (%): 2 (5.1%)
  TETRAS-ADL Score, subjects with >0 to 1 point improvement, n (%): 5 (12.8%)
  TETRAS-ADL Score, subjects with >0 to 1 point worsening, n (%): 1 (2.6%)
  TETRAS-ADL Score, subjects with >1 to 2.5 point improvement, n (%): 2 (5.1%)
  TETRAS-ADL Score, subjects with >1 to 2.5 point worsening, n (%): 3 (7.7%)
  TETRAS-ADL Score, subjects with >2.5 to 5 point improvement, n (%): 7 (17.9%)
  TETRAS-ADL Score, subjects with >2.5 to 5 point worsening, n (%): 3 (7.7%)
  TETRAS-ADL Score, subjects with >5 to 10 point improvement, n (%): 11 (28.2%)
  TETRAS-ADL Score, subjects with >5 to 10 point worsening, n (%): 0
  TETRAS-ADL Score, subjects with >10 point improvement, n (%): 5 (12.8%)
  TETRAS-ADL Score, subjects with >10 point worsening, n (%): 0
[5]; patients Minimally Improved by CGI-I
  TETRAS-ADL Score change from baseline, Median (minimum, maximum): −2.0 (−11, 3)
[5]; patients Minimally Improved by PGIC
  TETRAS-ADL Score change from baseline, Median (minimum, maximum): −4.0 (−13, 4)
[5]; Day 28, N 37
  Subjects with improvement of at least 5 points by TETRAS-ADL score, number: 11
[5]; [9]
  TETRAS-ADL Score, subjects with 0 change, n (%): 5 (13.5%)
  TETRAS-ADL Score, subjects with >0 to 1 point improvement, n (%): 2 (5.4%)
  TETRAS-ADL Score, subjects with >0 to 1 point worsening, n (%): 3 (8.1%)
  TETRAS-ADL Score, subjects with >1 to 2.5 point improvement, n (%): 3 (8.1%)
  TETRAS-ADL Score, subjects with >1 to 2.5 point worsening, n (%): 3 (8.1%)
  TETRAS-ADL Score, subjects with >2.5 to 5 point improvement, n (%): 7 (18.9%)
  TETRAS-ADL Score, subjects with >2.5 to 5 point worsening, n (%): 3 (8.1%)
  TETRAS-ADL Score, subjects with >5 to 10 point improvement, n (%): 6 (16.2)
  TETRAS-ADL Score, subjects with >5 to 10 point worsening, n (%): 0
  TETRAS-ADL Score, subjects with >10 point improvement, n (%): 5 (13.5%)
  TETRAS-ADL Score, subjects with >10 point worsening, n (%): 0
Solubility of CX-8998
  solubility: poor solubility
[6]
  LS mean (±SE) change from baseline in TETRAS-PS scored by independent video raters (primary endpoint): −1.8±0.81
[7]; Day 15
  PGIC Category 0 No change, patients, number (%): 11 (28%)
  PGIC Category 1 Minimally improved, patients, number (%): 17 (44%)
  PGIC Category 2 Much improved, patients, number (%): 8 (21%)
  PGIC Category 3 Very much improved, patients, number (%): 1 (3%)
  PGIC Category −1 Minimally worse, patients, number (%): 1 (3%)
  PGIC Category −2 Much worse, patients, number (%): 1 (3%)
  PGIC Category −3 Very much worse, patients, number (%): 0
  mean PGIC score vs placebo: significantly greater (improved)
  PGIC score (rescaled −3 to 3), LS mean (SE): 0.9 (0.17)
[7]; Day 15, N = 39
  PGIC Score, subjects 0 - no change, n (%): 11 (28%)
  PGIC Score, subjects 1 - minimally improved, n (%): 17 (44%)
  PGIC Score, subjects 2 - much improved, n (%): 8 (21%)
  PGIC Score, subjects 3 - very much improved, n (%): 1 (3%)
  PGIC Score, subjects −1 - minimally worse, n (%): 1 (3%)
  PGIC Score, subjects −2 - much worse, n (%): 1 (3%)
  PGIC Score, subjects −3 - very much worse, n (%): 0
[7]; Day 28
  PGIC Category 0 No change, patients, number (%): 14 (36%)
  PGIC Category 1 Minimally improved, patients, number (%): 10 (26%)
  PGIC Category 2 Much improved, patients, number (%): 7 (18%)
  PGIC Category 3 Very much improved, patients, number (%): 3 (8%)
  PGIC Category −1 Minimally worse, patients, number (%): 1 (3%)
  PGIC Category −2 Much worse, patients, number (%): 1 (3%)
  PGIC Category −3 Very much worse, patients, number (%): 1 (3%)
  mean PGIC score vs placebo: trended toward significant improvement
  PGIC score (rescaled −3 to 3), LS mean (SE): 0.8 (0.19)
[7]; Day 28, head N = 39
  PGIC Score, subjects 0 - no change, n (%): 14 (36%)
  PGIC Score, subjects 1 - minimally improved, n (%): 10 (26%)
  PGIC Score, subjects 2 - much improved, n (%): 7 (18%)
  PGIC Score, subjects 3 - very much improved, n (%): 3 (8%)
  PGIC Score, subjects −1 - minimally worse, n (%): 1 (3%)
  PGIC Score, subjects −2 - much worse, n (%): 1 (3%)
  PGIC Score, subjects −3 - very much worse, n (%): 1 (3%)
EEG alpha power
  reduction of EEG alpha power: ≥ 25%
